pIC50: −log10 of the molar value.
Key:
[1] = target: Sodium-dependent noradrenaline transporter (Homo sapiens, UniProt P23975)
Description: Inhibitory activity against norepinephrine (NE) uptake in rat whole brain synaptosome preparation

Mus musculus [2] = species on record: Mus musculus; experiment: Antagonistic activity against Scopolamine induced behavioral deficits in mice; 2/6; format: functional
Mus musculus [3] = experiment: Antagonistic activity against Scopolamine induced behavioral deficits in mice at dose 0.16 mg/kg sc; format: functional; conditions: route subcutaneous
[4] = target: Muscarinic acetylcholine receptor; format: cell membranes, Membrane
Description: Inhibition of [3H]quinuclidinyl benzilate (QNB) binding from rat forebrain membranes in the absence of Zn

[5] = target: Muscarinic acetylcholine receptor; format: cell membranes, Membrane; remark: listed apart in the source
Description: Inhibition of [3H]quinuclidinyl benzilate (QNB) binding from rat forebrain membranes in the presence of Zn

Mus musculus [6] = species on record: Mus musculus; experiment: animal or person
Description: Effective dose against administration in mice

Mus musculus [7] = species on record: Mus musculus; conditions: dose 0.63 mg/kg; route subcutaneous
Description: Antagonistic activity against Scopolamine induced behavioral deficits in mice at dose 0.63 mg/kg sc

Mus musculus [8] = experiment: Antagonistic activity against Scopolamine induced behavioral deficits in mice at dose […] sc; format: functional; conditions: route subcutaneous
[9] = target: T1, Adrenergic receptor alpha-2 (Rattus norvegicus, UniProt P22086+P19328+P22909); experiment: Inhibitory activity against [3H]clonidine binding to Alpha-2 adrenergic receptor in rat cortex
T1 sequence (P22086 whole entry): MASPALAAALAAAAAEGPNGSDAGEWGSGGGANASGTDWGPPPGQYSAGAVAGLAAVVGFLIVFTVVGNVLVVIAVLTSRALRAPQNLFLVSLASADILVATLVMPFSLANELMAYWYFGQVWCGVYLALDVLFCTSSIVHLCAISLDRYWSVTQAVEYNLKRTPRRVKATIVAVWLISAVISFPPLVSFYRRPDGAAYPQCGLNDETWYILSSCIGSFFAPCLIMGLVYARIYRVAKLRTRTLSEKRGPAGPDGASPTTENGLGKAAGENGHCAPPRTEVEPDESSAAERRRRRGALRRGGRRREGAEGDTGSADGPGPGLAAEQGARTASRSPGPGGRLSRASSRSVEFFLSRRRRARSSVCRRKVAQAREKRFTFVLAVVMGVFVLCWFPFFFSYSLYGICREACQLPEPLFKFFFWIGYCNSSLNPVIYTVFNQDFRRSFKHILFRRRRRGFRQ
T1 sequence (P19328 whole entry): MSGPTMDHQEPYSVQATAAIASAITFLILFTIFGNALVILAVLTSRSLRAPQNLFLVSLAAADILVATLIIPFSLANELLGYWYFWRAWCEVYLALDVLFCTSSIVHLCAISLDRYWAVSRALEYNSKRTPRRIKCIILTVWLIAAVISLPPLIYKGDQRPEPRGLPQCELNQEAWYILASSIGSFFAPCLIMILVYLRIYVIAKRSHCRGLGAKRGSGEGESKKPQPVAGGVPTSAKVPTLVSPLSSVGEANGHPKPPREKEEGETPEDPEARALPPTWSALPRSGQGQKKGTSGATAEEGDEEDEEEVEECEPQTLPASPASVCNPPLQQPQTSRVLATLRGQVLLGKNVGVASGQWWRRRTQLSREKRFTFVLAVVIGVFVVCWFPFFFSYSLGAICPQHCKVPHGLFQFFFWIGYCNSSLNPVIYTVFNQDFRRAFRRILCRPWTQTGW
T1 sequence (P22909 whole entry): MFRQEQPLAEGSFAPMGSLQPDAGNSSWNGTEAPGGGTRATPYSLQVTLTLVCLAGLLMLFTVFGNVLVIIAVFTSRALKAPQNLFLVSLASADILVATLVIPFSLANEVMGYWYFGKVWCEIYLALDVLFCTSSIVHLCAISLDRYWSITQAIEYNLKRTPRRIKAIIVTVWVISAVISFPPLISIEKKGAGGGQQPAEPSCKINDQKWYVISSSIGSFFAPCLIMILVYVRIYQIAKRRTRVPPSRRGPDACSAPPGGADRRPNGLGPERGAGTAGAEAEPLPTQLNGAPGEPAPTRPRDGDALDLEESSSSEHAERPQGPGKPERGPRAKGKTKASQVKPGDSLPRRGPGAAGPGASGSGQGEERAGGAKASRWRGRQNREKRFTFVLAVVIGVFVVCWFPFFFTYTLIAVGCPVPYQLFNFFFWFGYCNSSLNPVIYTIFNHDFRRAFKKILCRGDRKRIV

Acetylcholinesterase = target: T2, Acetylcholinesterase (Rattus norvegicus, UniProt P37136)
T2 sequence (P37136 whole entry): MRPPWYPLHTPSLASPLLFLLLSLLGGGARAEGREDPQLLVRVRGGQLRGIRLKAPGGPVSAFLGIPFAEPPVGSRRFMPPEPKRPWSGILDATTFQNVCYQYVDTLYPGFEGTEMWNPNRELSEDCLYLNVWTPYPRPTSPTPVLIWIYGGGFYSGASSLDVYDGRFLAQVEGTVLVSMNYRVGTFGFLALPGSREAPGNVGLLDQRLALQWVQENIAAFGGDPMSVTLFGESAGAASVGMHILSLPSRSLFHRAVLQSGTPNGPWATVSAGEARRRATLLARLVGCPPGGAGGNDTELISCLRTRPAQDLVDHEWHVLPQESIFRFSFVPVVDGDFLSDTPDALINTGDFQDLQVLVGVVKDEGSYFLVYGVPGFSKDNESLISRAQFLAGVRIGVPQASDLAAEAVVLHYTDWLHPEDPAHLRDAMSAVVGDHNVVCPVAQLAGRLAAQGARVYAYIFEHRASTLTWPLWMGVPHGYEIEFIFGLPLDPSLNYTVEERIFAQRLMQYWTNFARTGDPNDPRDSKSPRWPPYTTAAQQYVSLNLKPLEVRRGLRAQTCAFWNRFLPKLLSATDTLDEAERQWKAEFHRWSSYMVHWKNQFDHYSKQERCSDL
Description: Inhibitory activity against acetylcholinesterase in rat striatal preparation

Mus musculus [10] = experiment: Antagonistic activity against Scopolamine induced behavioral deficits in mice at dose 0.04 mg/kg sc; format: functional; conditions: route subcutaneous
Mus musculus [11] = species on record: Mus musculus; experiment: Antagonistic activity against Scopolamine induced behavioral deficits in mice; 2/10; format: functional
Mus musculus [12] = experiment: Antagonistic activity against Scopolamine induced behavioral deficits in mice at dose 5.0 mg/kg sc; 2/8; format: functional
[13] = target: T3, Adrenergic receptor alpha-1 (Rattus norvegicus, UniProt P15823+P23944+P43140); experiment: Inhibitory activity against [3H]WB-4101 binding to Alpha-1 adrenergic receptor in rat whole brain membrane; format: cell membranes
T3 sequence (P15823 whole entry): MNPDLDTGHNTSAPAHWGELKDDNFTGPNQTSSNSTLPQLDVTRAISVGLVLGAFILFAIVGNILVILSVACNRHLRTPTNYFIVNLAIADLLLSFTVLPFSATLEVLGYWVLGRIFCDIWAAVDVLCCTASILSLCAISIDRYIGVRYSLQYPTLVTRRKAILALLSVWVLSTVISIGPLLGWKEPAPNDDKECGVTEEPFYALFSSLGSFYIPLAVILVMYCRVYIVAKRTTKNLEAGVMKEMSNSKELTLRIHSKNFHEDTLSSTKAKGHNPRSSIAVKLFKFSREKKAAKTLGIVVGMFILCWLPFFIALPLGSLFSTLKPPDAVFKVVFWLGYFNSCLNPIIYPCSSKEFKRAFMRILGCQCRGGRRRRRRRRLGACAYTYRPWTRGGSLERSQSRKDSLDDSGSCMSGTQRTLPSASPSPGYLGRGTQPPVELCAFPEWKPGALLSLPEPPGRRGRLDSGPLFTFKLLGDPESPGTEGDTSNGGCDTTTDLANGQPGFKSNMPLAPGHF
T3 sequence (P23944 whole entry): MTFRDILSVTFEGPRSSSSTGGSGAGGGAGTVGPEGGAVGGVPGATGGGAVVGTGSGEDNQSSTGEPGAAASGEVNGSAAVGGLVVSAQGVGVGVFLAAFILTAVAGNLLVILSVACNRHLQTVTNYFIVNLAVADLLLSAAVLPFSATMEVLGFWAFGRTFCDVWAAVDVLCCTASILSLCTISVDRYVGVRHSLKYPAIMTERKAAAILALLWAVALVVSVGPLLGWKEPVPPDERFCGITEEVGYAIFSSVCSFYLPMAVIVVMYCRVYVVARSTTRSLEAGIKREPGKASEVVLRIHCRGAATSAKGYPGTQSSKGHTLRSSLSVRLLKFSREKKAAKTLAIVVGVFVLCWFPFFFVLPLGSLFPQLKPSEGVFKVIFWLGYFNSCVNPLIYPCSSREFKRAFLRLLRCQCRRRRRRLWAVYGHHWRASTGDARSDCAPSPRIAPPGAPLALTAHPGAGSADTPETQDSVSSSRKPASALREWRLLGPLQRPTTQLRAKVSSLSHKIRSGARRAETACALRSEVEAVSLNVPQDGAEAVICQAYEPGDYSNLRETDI
T3 sequence (P43140 whole entry): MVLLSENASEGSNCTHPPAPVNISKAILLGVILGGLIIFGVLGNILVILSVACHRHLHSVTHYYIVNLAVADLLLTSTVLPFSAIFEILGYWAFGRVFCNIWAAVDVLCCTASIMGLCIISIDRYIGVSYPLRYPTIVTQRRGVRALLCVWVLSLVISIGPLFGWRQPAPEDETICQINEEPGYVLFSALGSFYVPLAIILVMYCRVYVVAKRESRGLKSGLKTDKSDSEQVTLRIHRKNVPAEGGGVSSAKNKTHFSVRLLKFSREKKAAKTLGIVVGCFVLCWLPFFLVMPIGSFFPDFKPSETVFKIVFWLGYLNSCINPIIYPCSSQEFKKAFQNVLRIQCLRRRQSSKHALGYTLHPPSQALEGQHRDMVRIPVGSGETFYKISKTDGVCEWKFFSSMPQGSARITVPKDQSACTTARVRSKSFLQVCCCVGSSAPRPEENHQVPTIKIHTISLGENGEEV

Mus musculus [14] = experiment: Antagonistic activity against Scopolamine induced behavioral deficits in mice at dose 1.25 mg/kg sc; format: functional; conditions: route subcutaneous
Mus musculus [15] = experiment: Antagonistic activity against Scopolamine induced behavioral deficits in mice at dose 10 mg/kg sc; format: functional; conditions: route subcutaneous

Sodium-dependent noradrenaline transporter, sequence (P23975 whole entry): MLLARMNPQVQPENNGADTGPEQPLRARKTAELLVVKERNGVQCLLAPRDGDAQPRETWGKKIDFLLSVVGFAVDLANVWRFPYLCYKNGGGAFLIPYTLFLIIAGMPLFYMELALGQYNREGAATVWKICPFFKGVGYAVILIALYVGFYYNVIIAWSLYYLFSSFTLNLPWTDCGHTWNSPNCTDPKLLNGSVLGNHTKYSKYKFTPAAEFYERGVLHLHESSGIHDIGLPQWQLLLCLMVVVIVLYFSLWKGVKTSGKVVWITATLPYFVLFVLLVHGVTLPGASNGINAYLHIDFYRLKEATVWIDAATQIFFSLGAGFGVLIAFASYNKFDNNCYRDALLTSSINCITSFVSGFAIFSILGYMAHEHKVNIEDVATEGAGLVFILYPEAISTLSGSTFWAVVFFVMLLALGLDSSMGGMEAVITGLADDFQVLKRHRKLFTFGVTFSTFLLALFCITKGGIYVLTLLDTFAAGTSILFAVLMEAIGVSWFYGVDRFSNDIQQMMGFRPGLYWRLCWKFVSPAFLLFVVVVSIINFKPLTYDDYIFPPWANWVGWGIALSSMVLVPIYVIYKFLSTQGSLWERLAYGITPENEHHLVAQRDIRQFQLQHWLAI

| Structure (SMILES) | pIC50 [1] | Antagonism (Mus musculus [2]) | Response (Mus musculus [3]) [%] | IC50 [4] [µM] | IC50 [5] [µM] | ED50 (Mus musculus [6]) [mg/kg] | Response (Mus musculus [7]) [%] | Response (Mus musculus [8]) [%] | IC50 [9] [µM] | pIC50 (Acetylcholinesterase) | Response (Mus musculus [10]) [%] | Antagonism (Mus musculus [11]) | Antagonism (Mus musculus [12]) | IC50 [13] [µM] | Response (Mus musculus [14]) [%] | Response (Mus musculus [15]) [%] |
| --- | --- | --- | --- | --- | --- | --- | --- | --- | --- | --- | --- | --- | --- | --- | --- | --- |
| CCCN(c1[nH]cnc2ncnc1-2)n1ccc2ccccc21 | 4.92 | 2 | 20 | > 300 | 58 | > 20 | 20 | – | – | – | – | – | – | – | – | – |
| CCCN(c1ccncc1)n1cc(C)c2ccccc21 | 5.89 | – | – | 19 | 4.5 | 1.8 | – | 20 | 2.5 | 4.54 | 22 | 2 | – | – | – | – |
| CCCN(c1ccncc1)n1c2ccccc2c2ccccc21.O=C(O)/C=C/C(=O)O | 5.62 | – | – | 5.5 | 0.5 | 1.5 | – | – | 0.54 | < 4.00 | – | – | 2 | 3.2 | 20 | 24 |
